Measurements published in article PMC9295122, “Sialic Acid Derivatives Inhibit SiaT Transporters and Delay Bacterial Growth” (ACS Chemical Biology, 2022).
Entries after “also recorded” stand apart in the source; their conditions may differ.

What was measured:
[1] = biological target: SaSiaT (Staphylococcus aureus, UniProt A0A0H2XJ46); experiment: [3H]Neu5Ac efflux in proteoliposomes, SaSiaT; type: biochemical; details: 0.1 mM external compound
Description: Figure 5 Kinetic analysis of the inhibition of recombinant SiaT from P. mirabilis (A,B) and S. aureus (C,D) reconstituted in proteoliposomes and [^3H]Neu5Ac efflux in proteoliposomes (E,F). (a–d) Data were plotted according to Lineweaver–Burk as a reciprocal transport rate vs reciprocal Neu5Ac concentration. The transport rate was measured, in 5 min, by adding [^3H] Neu5Ac at the indicated concentrations to proteoliposomes containing 20 mM K^+-gluconate in the presence of valinomycin as described in the Supporting Information. [(A,B) P. mirabilis SiaT]; (A) compound 3f 0.25 μM (●) or 0.75 μM (□) was added in comparison to samples without inhibitor (○). […] Data are calculated as the percent of residual activity with respect to the control sample (efflux time zero). […]
For uptake experiments, 600 μL of proteoliposomes were loaded onto a Sephadex G-75 column (0.7 cm diameter × 15 cm height), pre-equilibrated with 20 mM Hepes Tris pH 7.0 with 40 mM sucrose to balance the internal osmolarity. […] For kinetic measurement, the initial transport rate was measured by stopping the reaction after 5 min, that is, within the initial linear range of [^3H]-Neu5Ac uptake into the proteoliposomes previously described. […] Proteoliposomes were eluted with 1 mL of 50 mM NaCl and collected in a 4 mL of scintillation mixture, vortexed and counted.

[2] = test system: E. coli JW3193 ΔNanT expressing SaSiaT; experiment: Growth of E. coli JW3193 ΔNanT expressing SaSiaT; type: cell-based, Escherichia coli; details: for effect on growth on sialic acid: 0.5 mM sialic acid + 1 mM inhibitor; for growth with inhibitor as only carbon source: 1 mM inhibitor
From the text: To further investigate bacterial growth inhibition, we employed a model system of E. coli JW3193 ΔNanT expressing the SaSiaT and PmSiaT transporters. We designed these experiments to test if compounds 3e and 3f could inhibit the Neu5Ac transport in vivo because, without an active sialic acid transporter, E. coli JW3193 ΔNanT cannot grow on Neu5Ac.[16],[21]
For the bacterial growth experiments, the pJ422-01 plasmid containing the relevant SiaT or NanT gene was transformed into the E. coli JW3193 ΔnanT strain.[21] Throughout the experiments, strains containing the pJ422-01 plasmid were grown in media supplemented with 25 μg/mL Zeocin. E. coli BW25113, empty E. coli JW3193, and E. coli JW3193 with pJ422-01 containing the NanT gene were also used as controls. Strains were initially plated out from glycerol stocks before a single colony was picked and grown overnight in low salt LB media at 37 °C, with shaking at 180 rpm. Overnight cultures were diluted to an OD600 of 0.05 using low salt LB [supplemented with 1 mM isopropyl β-D-1-thiogalactopyranoside (IPTG)], before they were incubated at 37 °C, with shaking at 250 rpm, until they reached an OD600 of 0.3. At this point, 5 mL of each culture was centrifuged at 6000g for 5 min at 25 °C. The supernatants were removed and the cell pellets were resuspended in 5 mL of M9 MM without glucose prior to being centrifuged again at 6000g for 5 min at 25 °C. This wash step was repeated twice more before cells were resuspended to an OD600 of 0.5 in M9 MM without glucose. A Corning Costar Flat Bottom 96 Well TC-treated microplate was set up with 180 μL of M9 MM containing 1 mM IPTG (for the pJ422-01 strains) and either 5 mM glucose, 0.5 mM sialic acid, and 0.5 mM sialic acid with 1 mM of either inhibitor, or 1 mM of either inhibitor as a carbon source. To the 180 μL of media, 20 μL of each culture were added to the plate (OD600 of 0.05), before it was loaded into a FLUOstar Omega microplate reader (BMG Labtech). Growth was recorded at 600 nm every 10 min at 37 °C, with shaking at 300 rpm. Growth curves represent the mean and standard deviation of measurement from triplicate measurements (glucose/no carbon source in duplicate).
Fig. S5. Growth of E. coli JW3193 ΔNanT expressing the SaSiaT and PmSiaT transporters from a plasmid and using various carbon sources and in the presence or absence of inhibitors, 3e and 3f. (A) SaSiaT is expressed from a plasmid in the E. coli strain JW3193 ΔNanT, where the native sialic acid transporter (NanT) is deleted. The strain grows normally when in media with glucose (black line). There is no growth in the absence of any carbon source (grey line). In the presence of sialic acid at 0.5 mM the strain grows to an OD of ~0.5 (red line), showing that the transporter is functional. There is no growth in the […]

Chain of SaSiaT (A0A0H2XJ46 entry or part of it): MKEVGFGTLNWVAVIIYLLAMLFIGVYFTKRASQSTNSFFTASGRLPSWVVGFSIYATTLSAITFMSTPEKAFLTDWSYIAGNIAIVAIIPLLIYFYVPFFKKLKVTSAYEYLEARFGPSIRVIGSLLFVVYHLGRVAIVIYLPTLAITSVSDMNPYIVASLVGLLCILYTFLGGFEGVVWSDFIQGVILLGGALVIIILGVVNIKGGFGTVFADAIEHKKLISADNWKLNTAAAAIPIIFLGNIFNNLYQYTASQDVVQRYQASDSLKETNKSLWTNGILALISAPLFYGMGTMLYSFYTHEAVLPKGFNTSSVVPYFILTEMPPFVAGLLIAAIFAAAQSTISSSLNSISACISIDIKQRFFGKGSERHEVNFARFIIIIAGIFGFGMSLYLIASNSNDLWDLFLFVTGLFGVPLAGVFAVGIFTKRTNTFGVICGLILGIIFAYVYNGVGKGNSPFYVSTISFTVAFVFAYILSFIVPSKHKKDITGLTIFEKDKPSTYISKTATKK

SMILES | [3H]Neu5Ac efflux induced [1] | effect on growth on sialic acid [2] | growth with inhibitor as only carbon source [2]
CC(=O)NC1C(OCc2cc(F)cc(F)c2)CC(O)(C(=O)O)OC1C(O)C(O)CO (stereo not drawn) [Compound 3e] | to the same extent as Neu5Ac | no effect on growth; also recorded: neither inhibitor seemed to alter bacterial growth | no growth
CC(=O)NC1C(OCc2cc(Br)cc(Br)c2)CC(O)(C(=O)O)OC1C(O)C(O)CO (stereo not drawn) [Compound 3f] | negligible | no effect on growth; also recorded: neither inhibitor seemed to alter bacterial growth | no growth
